Measurements reported in patent US12630604B2, “Methods of making chimeric antigen receptor-expressing cells” (Novartis AG, priority 2018, dated 2026).
“Also recorded” adds a separate entry of the source.

Columns and labels:
Type in all cases: cell-based
[1] = test system: T cells; assay: T cell differentiation status by flow cytometry (CCR7/CD45RO), cytokine process; details: purified T cells cultured with cytokine 24 hours, no CD3/CD28 stimulation
Method: The cells were immunophenotyped for T cell differentiation status and transduction of the CAR was assessed using flow cytometry. The cells were washed, viability dye was added followed by the antibody cocktail (Table 20), and the plates were incubated for 20 minutes at room temperature. After the incubation, the cells were washed twice and fixed prior to being analyzed on the BD fortessa.

[2] = test system: T cells; assay: T cell culture with cytokines after αCD3/αCD28 bead activation (expansion, size, viability); details: for T cell expansion: T cells activated with αCD3αCD28 beads at day 0 in presence of cytokine; for cell size and viability: after TCR engagement
Method: Previously frozen T cells were thawed and contacted with αCD3/αCD28 dynal beads (cell to bead ratio of 1 to 3) in the presence of indicated cytokines at day 0. From day 3, twice more T cell growth media (RPMI1640, 10% FBS, 2 mM L-glutamin, 100 μM non-essential amino acids, 1 mM sodium pyruvate, 10 mM Hepes, 55 μM β-mercaptoethanol, 10% FBS, and 100 U/ml of penicillin-streptomycin) was added to the plate with indicated cytokines (without cytokine, rhIL2 (501 U/ml, Novartis), IL6 (10 ng/ml, R&D systems), IL7 (10 ng/ml, Peprotech), IL15 (10 ng/ml, Peprotech), and IL21 (10 ng/ml, Peprotech)) at day 3, 5, 6, 9, 12, 15, and 18.

[3] = test system: IL6Rβ expressing cells; assay: Cell surface staining (IL6Rα/IL6Rβ and differentiation markers); details: after TCR engagement
Excerpt: Cells were harvested at indicated time points and then stained with live/dead dye (eFluro780, eBioscience), CD3 (BioLegend, clone #: OKT3), CD4 (BioLegend, clone #: OKT4), CD8 (BD Bioscience, clone #: RPA-T8), CD45RO (BioLegend, clone #: UCHL1), CCR7 (BioLegend, clone #: G043H7), CD27 (BD Horizon, clone #: L128), CD127 (BioLegend, clone #: A019D5), CD57 (BioLegend, clone #: HCD57), CD126 (BioLegend, clone #: UV4), and CD130 (R&D Systems, clone #: 28126) antibodies. The cells were acquired by FACS Fortessa and then FlowJo program was used for data analysis.

[4] = test system: T cells; assay: ARM-BCMA CAR expression kinetics in vitro with or without AZT (FACS); details: 30 μM and 100 μM doses
Method: In contrast to TM which measures lentiviral integration of the CAR transgene after 8-9 days, in the ARM process, the lentiviral transgene may not be fully integrated and truly expressed within 24 h post lentiviral addition, as lentiviral pseudotransduction could occur (Haas D L, et al., (2000) Mol Ther; 2(1):71-80; Galla M, et al., (2004) Mol Cell; 16(2):309-15). Therefore, the BCMA-CAR expression pattern was evaluated over time by extended culturing of ARM-BCMA CAR in vitro in the presence or absence of 3′-azido-3′-deoxythymidine (AZT) to evaluate the potential pseudotransduction versus stable integration and expression of the CAR transgene. Flow cytometry (FACS) analyses were performed to detect CAR surface expression at 24 h, 48 h, 72 h, 96 h and 168 h post T cell activation and transduction with the lentiviral vector. In some cases, ARM-BCMA CAR and an aliquot of this product were frozen down immediately upon harvest for additional characterization in other assays.

| Molecule | maintenance of self-renewing / naïve T cells (CD45RO−CCR7+) [1] | T cell expansion [2] | cell size and viability [2] | expansion of IL6Rβ expressing cells [3] | inhibition of CAR expression [4] |
| --- | --- | --- | --- | --- | --- |
| IL-15: cytokine | maintained self-renewing T cells in vitro | enhanced T cell expansion; also recorded: the greatest enhancement | did not affect cell size and viability | enhanced expansion of IL6Rβ expressing cells |  |
| Cc1cn([C@H]2C[C@H](N=[N+]=[N-])[C@@H](CO)O2)c(=O)[nH]c1=O [AZT, 3′-azido-3′-deoxythymidine] |  |  |  |  | effectively inhibit CAR expression |
| IL7: cytokine (protein, UniProt P13232 26-177, looked up) Interleukin-7: DCDIEGKDGKQYESVLMVSIDQLLDSMKEIGSNCLNNEFNFFKRHICDANKEGMFLFRAARKLRQFLKMNSTGDFDLHLLKVSEGTTILLNCTGQVKGRKPAALGEAQPTKSLEENKSLKEQKKLNDLCFLKRLLQEIKTCWNKILMGTKEH |  | enhanced T cell expansion | did not affect cell size and viability |  |  |
